Like-named read-outs stand apart in the source and are kept apart here.
Key:
[1] = system: female C57 Bl/6 mice primed and challenged with sheep red blood cells (SRBC); experiment: DTH (Delayed-Type Hypersensitivity) assay; type: in vivo; conditions: given daily for six days, dose reducing footpad thickness increase by 30% vs controls
Description: The immunosuppressive activity of the compounds of the invention was evaluated in vivo by DTH (Delayed-Type Hypersensitivity) assay. According to the test, sheep red blood cells (SRBC) (1×10^5 cells) suspended in 500 mcL saline, were injected i.v. into the tail vein of female C57 Bl/6 mice (8-9 week old). Five days later 1×10^8 SRBC suspended in 50 mcL saline were injected into the left hind footpad. The increase in footpad thickness was measured with a dial micrometer 24 h after challenge. The test compounds were given daily for six days at different doses starting on the day of priming. Activity was expressed as ED30 (dose able to reduce by 30% the thickness increase compared to controls).

[2] = In vivo bioavailability evaluation (pharmacokinetics and oral bioavailability); conditions: 10 mg/kg, male Lewis rat, iv 1 mg salt/kg, oral 10 mg salt/kg, read-out: F % (bioavailability)
Description: Aim of the study is to determine the pharmacokinetics and the oral bioavailability of the instant prodigiosine compounds in rats.
Species/strain/sex: rat/Lewis/male
No. formulations: 1 oral; 1 intravenous
No. animals/formulation: 3+2 controls (+an ulterior rat treated with the iv formulation); total 9
Dosages: iv: 1 mg salt/kg; oral: 10 mg salt/kg
Vehicles: iv: a solution at the conc. of 5 mg/ml in PEG 400/Tween 80 (6:1 v:v) was prepared, then diluted with dextrose at the final concentration of 0.5 mg/ml; oral: a solution at the concentration of 5 mg/ml in Cremophor ELP/EtOH abs (6.5:3.5 v:v) was prepared, then diluted with saline at the final concentration of 1 mg/ml
Experimental: Three cannulated rats/formulation were treated. One rat/formulation was only treated with the vehicle, as basal sample. The intravenous administration was given into the caudal vein as bolus; the oral administration by gastric gavage as solution. […] Plasma was immediately obtained by centrifugation (10000 rpm for 3 min) and stored in labelled tubes at −30° C. till analysis.
Analytical assay: the extraction of the compounds was performed by protein precipitation by adding 100 mcl of acetonitrile to 25 mcl of plasma. The concentrations of the compounds (as free bases) in plasma were determined by LC-MS method. Column: APEX CN RP 5 mc, 10×4 mm (Jones chromatography); mobil phase: 70% acetonitrile/30% 1 mM ammonium formate +0.01% triethylamine adjusted to pH 2.0 with formic acid; flow rate: 1 ml/min; injection volume: 10 mcL; oven temperature: 45° C.; MS detection by APCI using MRM positive ion; MRM transition: 330 m/z>239 m/z, retention time: 1.4 min; LLOQ: 5.03 ng/ml; ULOQ: 10060 ng/ml. Bioavailability is expressed in following Table 1 as F %. ClogP is a lypophylic index, related to octanol/water partition coefficient.

[3] = system: Th murine cells D10-G4.1 (ATCC TIB 224); experiment: Inhibition of IL-2 proliferation induced activity (3H-TdR uptake); type: cell-based; conditions: for 3HTdR uptake: mean cpm from triplicate wells, 48 h
Description: The Th murine cells D10-G4.1 (ATCC TIB 224) are IL-2 dependent for their growth. They are cultured in complete RPMI 1640 medium enriched with rhIL-2 (6 ng/ml) and ConA (6 ng/ml). For testing the inhibitory effects of the compounds of the invention on IL-2 activity, D 10 cells are washed twice with complete medium, resuspended at 10^5 cells/ml in the same medium and triplicately distributed (10^4 cells/well) in flat bottomed 96 well plates. […] and […] at different concentrations are simultaneously added to the cells. The cultures are then incubated at 37° C. in a humidified 5% CO2 incubator for 48 h, the last 18 h in the presence of 0.2 µCi of ^3H-TdR. Uptake of 3H-TdR in the cells (cpm) is taken as a measure of cell proliferation.

Structure (SMILES) | DTH ED30 iv [1] | DTH ED30 os [1] | bioavailability ([2]; in vivo) | bioavailability ([2]; plasma) | % inhibition vs vehicle ([3]; 1 ng/ml) | 3HTdR uptake ([3]; 1 ng/ml) | % inhibition vs vehicle ([3]; 3 ng/ml) | 3HTdR uptake ([3]; 3 ng/ml) | % inhibition vs vehicle ([3]; 10 ng/ml) | 3HTdR uptake ([3]; 10 ng/ml) | % inhibition vs vehicle ([3]; 30 ng/ml) | 3HTdR uptake ([3]; 30 ng/ml)
CCCCCCCCCCCC1=NC(=Cc2[nH]c(-c3ccc[nH]3)cc2OCc2ccccc2)C=C1.Cl [PNU 156804, 4-benzyloxy-5-[(5-undecyl-2H-pyrrol-2-ylidene)methyl]-2,2′-bi-1H-pyrrole, hydrochloride, reference compound] | 0.44 mg/kg | 18.7 mg/kg | 7% | – | – | – | – | – | – | – | – | –
CCCCCC1=NC(=Cc2[nH]c(-c3ccc[nH]3)cc2OCc2ccccc2)C=C1.Cl [PNU 169417, 4-benzyloxy-5-[(5-pentyl-2H-pyrrol-2-ylidene)methyl]-2,2′-bi-1H-pyrrole, hydrochloride] | 1.1 mg/kg | 4.4 mg/kg | – | 18% | – | – | – | – | – | – | – | –
CC1=NC(=Cc2[nH]c(-c3ccc[nH]3)cc2OCc2ccccc2)C=C1.Cl [PNU 168727, 4-benzyloxy-5-[(5-methyl-2H-pyrrol-2-ylidene)methyl]-2,2′-bi-1H-pyrrole, hydrochloride] | 1.7 mg/kg | 5.3 mg/kg | – | 35% | 5% | 58245 cpm | 11% | 54594 cpm | 87% | 8100 cpm | 100% | 52 cpm
